{
  "source": "patent US20260125736A1",
  "about": "“FURIN SENSORS AND APPLICATIONS THEREOF” (FLAREON BIOTECH GMBH, priority 2023, published 2026)",
  "key": {"[1]": {"biological_target": "T1, furin (Homo sapiens, UniProt P09958)", "T1 sequence (P09958 108-794)": "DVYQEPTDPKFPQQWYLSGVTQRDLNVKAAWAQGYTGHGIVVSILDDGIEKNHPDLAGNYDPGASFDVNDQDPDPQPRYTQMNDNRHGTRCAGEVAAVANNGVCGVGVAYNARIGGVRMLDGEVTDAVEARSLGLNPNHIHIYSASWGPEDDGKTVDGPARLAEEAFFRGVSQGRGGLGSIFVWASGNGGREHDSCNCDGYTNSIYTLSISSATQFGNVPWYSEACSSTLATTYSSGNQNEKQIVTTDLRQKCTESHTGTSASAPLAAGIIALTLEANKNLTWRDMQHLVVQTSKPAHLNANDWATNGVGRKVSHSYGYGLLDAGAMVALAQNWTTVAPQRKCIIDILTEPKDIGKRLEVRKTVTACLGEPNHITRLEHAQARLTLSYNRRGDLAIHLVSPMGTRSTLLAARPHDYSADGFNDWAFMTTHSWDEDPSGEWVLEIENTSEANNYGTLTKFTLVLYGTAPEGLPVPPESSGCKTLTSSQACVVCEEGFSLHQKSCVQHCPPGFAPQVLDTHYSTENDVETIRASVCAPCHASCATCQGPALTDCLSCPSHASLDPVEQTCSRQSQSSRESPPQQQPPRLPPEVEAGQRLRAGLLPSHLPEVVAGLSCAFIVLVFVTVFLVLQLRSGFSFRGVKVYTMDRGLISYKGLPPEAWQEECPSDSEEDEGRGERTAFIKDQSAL", "assay": "Cleavage of FRET sensors by furin / illumination of C1S", "type": "biochemical", "conditions": "C1S 10 μM incubated with furin for 60 min, illuminated at 350 nm; compared with C1S without furin", "method": "Negative controls were performed without furin. Experiments were performed n=3. The samples were analyzed using an Infinite M plex (Tecan trading AG, Mannedorf, Switzerland) with an excitation wavelength of λ=340 nm and an emission wavelength of A =490 nm.\nSensor C1S was incubated as described before under cleavage of FRET sensors with and without furin for 60 min and illuminated via Universal UV Lampe (CAMAG, Germany) with λ=350 nm."}, "[2]": {"system": "HNSCC tumor tissue", "assay": "FRET-based sensor tissue incubation (fluorescence, ex 340 nm / em 490 nm)", "type": "cell-based, human", "conditions": "10 μM sensor, incubation over 60 min, 37° C., cleavage determined against blank (intact sensor)", "method": "All included patients were diagnosed with primary oral squamous cell carcinoma (OSCC). Patients suffering from other tumor entities as well as inoperable cases were excluded from this study.\nAfter performing preoperative tumor staging and incisional biopsy to confirm the diagnosis, stage-appropriate tumor resection, lymph-node dissection, and reconstruction took place. Tumor resection was performed in the usual way, which included using separate margins for frozen section analysis in order to confirm in sano resection. […]\nTissues were stored on ice in sterile filtered in cell culture medium (RPMI-1640, Dutch modification, 10% FCS, 1% Penicillin/Streptomycin, Nystatin). […] After the 24h incubation, one of the tumor tissues was analyzed using FDA. […] The tumor tissue was incubated for 5 min and analyzed via Axio Observer.Z1 microscope equipped with an A-Plan 10×/0.25 Ph1 objective (Zeiss), 38 HE Green Fluorescent Protein (λex=450-490 nm, λem=500-550 nm) and a mercury vapor short-arc lamp.\nTissues were prepared as described before. […] The tissues were incubated at 37° C. and analyzed at t=0, 5, 10, 15, 20, 25, 30, 40, 50 and 60 min via an Infinite M plex (Tecan trading AG, Mannedorf, Switzerland) with an excitation wavelength of λ=340 nm and an emission wavelength of λ=490 nm. […]"}, "[3]": {"system": "HNSCC tissue", "type": "cell-based, human"}, "[4]": {"biological_target": "T1, furin", "assay": "Peptide cleavage by furin, analysed by HPLC (AUC of main peak vs negative control without furin)", "conditions": "cleavage of PSL via furin within 15 min; 0.1 mM peptide, 1 U furin, 37° C., n=3", "quoted_text": "Lyophilized peptides were solubilized in furin buffer (100 mM HEPES pH 7.5, 5 mM CaCl2) to 1 mM stock solutions. Cleavage was performed at 37° C. under rigorous shaking in 30 μL furin buffer containing 0.1 mM of the respective peptide and 1 U furin per reaction. The reaction was stopped via addition of 5 mM EDTA final concentration. Experiments were performed n=3.\nAnalytical HPLC was carried out via an Agilent 1260 infinity II HPLC (Agilent Technologies Inc., Waldbronn, Germany) using a Zorbax 300SB-CN 5 μm analytical 4.6×150 mm LC column (Agilent Technologies Inc., Waldbronn, Germany) The device was equipped with a diode array detector (G7115A, Agilent), a fluorescence detector (G7121A, Agilent), an automatic vial sampler (G7129C, Agilent), flexible Pump (G7104C, Agilent), and multicolumn oven (G7116A, Agilent). Mobile phase A was 0.1% TFA in Millipore water. Mobile phase B was ACN with 0.1% TFA, flow was set to 1 ml/min, injection volume was 15 μl, and the wavelength of the detector was set to A=214 nm. […]\nCleavage percent was analyzed by comparing the area under the curve (AUC) of the main peak from the respective peptide incubated with furin, compared to a negative control without furin."}},
  "note": "Primed or numbered codes have the meaning given here. Ends that are not written are not given here. * marks the point of attachment. Dabcyl′ = 4-((4-(dimethylamino)phenyl)azo)benzoic acid, CN(C)c1ccc(/N=N/c2ccc(C(=O)*)cc2)cc1; EDANS = O=S(=O)(O)c1cccc2c(NCCN*)cccc12",
  "data": [
    {"substance": "Ac-K(Dabcyl)-RRARSVAS-E(Edans) (Ac-K(Dabcyl′)RRARSVASE(EDANS)) [C1S]", "values": [
      {"measurement": "fluorescence observed visually after incubation with furin", "setting": "[1]", "result": "distinct cyan fluorescence"},
      {"measurement": "fold increase of sensor cleavage of the tumor tissue compared to healthy tissue", "setting": "[2]", "result": "> 2", "unit": "fold"},
      {"measurement": "time after which a fluorescent signal difference between HNSCC and healthy tissue is visually recognizable", "setting": "[3]", "result": 5, "unit": "min"}
    ]},
    {"substance": "RTAMSAGA [Z5]", "values": [
      {"measurement": "Cleavage", "setting": "[4]", "result": 26.16, "unit": "%"}
    ]},
    {"substance": "Ac-EG-K(Dabcyl)-RTAMTAGA-E(Edans)-GE (Ac-EGK(Dabcyl′)RTAMTAGAE(EDANS)GE) [Z3S]", "values": [
      {"measurement": "time after which a fluorescent signal difference between HNSCC and healthy tissue is visually recognizable", "setting": "[3]", "result": 35, "unit": "min"},
      {"measurement": "visual difference between healthy and HNSCC tissues in the first 30 minutes", "setting": "[3]", "result": "no difference could be observed"}
    ]}
  ]
}
